Measurements: EP0906078B1, “TOPICAL USE OF TEMPOL IN THE PREVENTION OF PHOTOAGING” (Bernstein, Eric F., priority 1996, dated 1997)
Several values for one entry are separate records, joined by “and”; a condition that tells them apart may be missing. Equal entries are not always repeated.

Key:
human elastin promoter [1] = assay: UVA/8-MOP (PUVA)-induced promoter activation (CAT activity) in fibroblast cultures from transgenic mice; assay type: cell-based
Procedure: Because a response to UVA alone in vitro is not measurable and the in vivo response is relatively small, 8-methoxypsoralen (8-MOP) was added to the system to enhance the promoter response to UVA.
In these experiments, control cells received no UVA or 8-MOP. UVA controls received either 0.5, 0.75 or 1.0 J/cm^2 of UVA without prior incubation with 8-MOP. 8-MOP controls received 1 µg/ml of 8-MOP but no UVA. Tempol controls received 100 mM Tempol and no UVA or 8-MOP. PUVA-treated cells were preincubated with 1.0 µg/ml of 8-MOP in PBS and then exposed to 0.5, 0.75 or 1.0 J/cm^2. Tempol treated cells were pretreated with 100 mM Tempol 12.5 minutes prior to UVA exposure. 8-MOP was also added to these cells at the same time as the Tempol.
The addition of Tempol to the cultures reduced the PUVA-induced increase in CAT activity to 1.5-, 1.2- and 2.0-fold that of controls, respectively, thus almost completely eliminating the PUVA-induced increase in CAT activity.
Fibroblast cultures were established from the skin of transgenic mice by explanting tissue specimens onto plastic tissue culture dishes and allowing cells to migrate to the surrounding area. The primary cultures were maintained in Dulbecco's modified Eagle's medium supplemented with 10% fetal calf serum, 2 mM L-glutamine and antibiotics, at 37°C. The primary cell cultures were passaged by trypsinization, and the subcultures in passages three or four were utilized for UVB treatment. After UV exposure, the cells were incubated in tissue culture medium for 24 hours, and then harvested for determination of CAT activity.
To measure the expression of the human elastin promoter/CAT reporter gene construct in the skin of transgenic mice and in fibroblast cultures established from these animals, CAT activity was determined. For extraction of the CAT from skin, the specimens were homogenized in 0.25 Tris-HCl, pH 7.5, using a tissue homogenizer (Brinkmann Instruments, Inc. Westbury, NY). The homogenates were centrifuged at 10,000 X g for 15 minutes at 4°C and the protein concentration in the supernatant determined by a commercial protein assay kit (Bio-Rad Laboratories, Richmond, CA). Aliquots of the supernatant containing 100 µg of protein were used for assay of CAT activity by incubation with [^14C] chloramphenicol in accordance with well-known procedures. The acetylated and non-acetylated forms of radioactive chloramphenicol were separated by thin-layer chromatography and CAT activity was determined by the radioactivity in the acetylated forms as a percent of the total radioactivity in each sample.
Irradiation with UVA was performed using a closely spaced array of seven Sylvania FR40T12 PUVA lamps filtered through window glass of 2 mm thickness to remove wavelengths below 320 nm. The energy output at 38 cm from the array was measured with a Solar Light Model 3D UVA and UVB detector (Solar Light Company, Philadelphia, PA). The output of the lamps filtered through the window glass was 2.02 mW/cm^2, with no detectable UVB.

human elastin promoter [2] = assay: UVB-induced promoter activation (CAT activity) in fibroblast cultures from transgenic mice
[3] = in vivo; cited from earlier work
human elastin promoter [4] = assay: Transgenic mouse model of photoaging: human elastin promoter/CAT reporter activity in skin after UVB; conditions: in vivo
Absorption spectrum = assay type: physicochemical

| Compound | CAT activity (human elastin promoter [1]; 1 µg/ml 8-MOP and 0.5 J/cm^2 UVA, no Tempol, relative to controls) [fold] | CAT activity (human elastin promoter [1]; 1 µg/ml 8-MOP and 0.75 J/cm^2 UVA, no Tempol, relative to controls) [fold] | CAT activity (human elastin promoter [1]; 1 µg/ml 8-MOP and 1.0 J/cm^2 UVA, no Tempol, relative to controls) [fold] | CAT activity (human elastin promoter [1]; 8-MOP alone (1 µg/ml), no UVA) | CAT activity (human elastin promoter [1]) | protection against the PUVA-induced increases in CAT activity (human elastin promoter [1]) | % Protection from UVB (human elastin promoter [2]) | further reduction of CAT activity by scavenging properties (human elastin promoter [2]) [%] | reduction in CAT activity from cells treated with UVB alone (human elastin promoter [2]) [fold] | detection in the blood following application [3] | CAT activity (human elastin promoter [4]) | absorption in the UVA range (Absorption spectrum) |
| --- | --- | --- | --- | --- | --- | --- | --- | --- | --- | --- | --- | --- |
| COc1c2occc2cc2ccc(=O)oc12 [8-MOP, 8-methoxypsoralen, reference compound] | 2.7 | 9.0 | 21.4 | failed to produce significant CAT activity |  |  |  |  |  |  |  |  |
| CC1(C)CC(O)CC(C)(C)N1[O] [Tempol, 4-hydroxy-2,2,6,6-tetramethyl-piperidinyloxy, free radical] |  |  |  |  | 1.5 fold and 1.2 fold and 2.0 fold | failed to afford protection | 41 p<0.01% and 74 p<0.001% and 69 p<0.001% and 42 p<0.001% | 38 | ~6 | undetectable | 1.7 fold and 3.3 fold | very little absorption |
